According to the supplement of paper PMC10733146:

Experiments:
Assay in all cases: viability relative to DMSO control (fraction); higher = less drug effect (more viable cells)
Details in all cases: 48 h
[1] = tested on: primary AML patient cells (S089)
Outline: (§1)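 In 384-well plates with compounds pre-plated at five concentrations (one well per concentration), primary mononuclear tumour cells were plated at 4 × 10^4 cells per well. The cells came from blood or bone marrow by Ficoll isolation or from processed lymph node, and were used fresh or cryopreserved. Culture ran for 48 h at 37 °C and 5% CO2 in RPMI-1640 containing penicillin/streptomycin, L-glutamine and human serum. Viability was read as CellTiter-Glo luminescence, normalised to the median of 16 inner DMSO wells.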

[2] = tested on: primary AML patient cells (S085)
Outline: as §1

[3] = tested on: primary AML patient cells (S037)
Outline: as §1

[4] = tested on: primary DLBCL patient cells (S076)
Outline: as §1

[5] = tested on: primary AML patient cells (S025)
Outline: as §1

[6] = tested on: primary T-NHL patient cells (S058)
Outline: as §1

[7] = tested on: primary AML patient cells (S002)
Outline: as §1

[8] = tested on: primary AML patient cells (S011)
Outline: as §1

[9] = tested on: primary AML patient cells (S091)
Outline: as §1

[10] = tested on: primary AML patient cells (S081)
Outline: as §1

[11] = tested on: primary AML patient cells (S006)
Outline: as §1

[12] = tested on: primary AML patient cells (S021)
Outline: as §1

[13] = tested on: primary AML patient cells (S017)
Outline: as §1

[14] = tested on: primary DLBCL patient cells (S049)
Outline: as §1

[15] = tested on: primary CLL patient cells (S043)
Outline: as §1

[16] = tested on: primary AML patient cells (S012)
Outline: as §1

[17] = tested on: primary AML patient cells (S019)
Outline: as §1

O=C(c1cc(Cc2n[nH]c(=O)c3ccccc23)ccc1F)N1CCN(C(=O)C2CC2)CC1 [Olaparib]
viability ([1]; 0.024 µM): 0.959 | viability ([1]; 0.12 µM): 0.82 | viability ([1]; 0.6 µM): 0.883 | viability ([1]; 3 µM): 0.63 | viability ([1]; 15 µM): 0.814 | viability ([2]; 0.024 µM): 0.861 | viability ([2]; 0.12 µM): 0.866 | viability ([2]; 0.6 µM): 0.988 | viability ([2]; 3 µM): 0.793 | viability ([2]; 15 µM): 0.992 | viability ([3]; 0.024 µM): 0.853 | viability ([3]; 0.12 µM): 0.895 | viability ([3]; 0.6 µM): 0.915 | viability ([3]; 3 µM): 0.859 | viability ([3]; 15 µM): 0.776 | viability ([4]; 0.024 µM): 0.91 | viability ([4]; 0.12 µM): 1.05 | viability ([4]; 0.6 µM): 1.12 | viability ([4]; 3 µM): 1 | viability ([4]; 15 µM): 0.955 | viability ([5]; 0.024 µM): 0.995 | viability ([5]; 0.12 µM): 0.973 | viability ([5]; 0.6 µM): 0.95 | viability ([5]; 3 µM): 1.01 | viability ([5]; 15 µM): 0.861 | viability ([6]; 0.024 µM): 1.09 | viability ([6]; 0.12 µM): 1.11 | viability ([6]; 0.6 µM): 1.18 | viability ([6]; 3 µM): 1.13 | viability ([6]; 15 µM): 0.999 | viability ([7]; 0.024 µM): 0.804 | viability ([7]; 0.12 µM): 1.05 | viability ([7]; 0.6 µM): 0.935 | viability ([7]; 3 µM): 0.804 | viability ([7]; 15 µM): 0.748 | viability ([8]; 0.024 µM): 0.832 | viability ([8]; 0.12 µM): 0.871 | viability ([8]; 0.6 µM): 0.873 | viability ([8]; 3 µM): 0.799 | viability ([8]; 15 µM): 0.603 | viability ([9]; 0.024 µM): 0.857 | viability ([9]; 0.12 µM): 0.796 | viability ([9]; 0.6 µM): 0.883 | viability ([9]; 3 µM): 0.862 | viability ([9]; 15 µM): 0.691 | viability ([10]; 0.024 µM): 0.818 | viability ([10]; 0.12 µM): 0.858 | viability ([10]; 0.6 µM): 0.889 | viability ([10]; 3 µM): 0.884 | viability ([10]; 15 µM): 0.894 | viability ([11]; 0.024 µM): 0.94 | viability ([11]; 0.12 µM): 0.986 | viability ([11]; 0.6 µM): 1.01 | viability ([11]; 3 µM): 0.884 | viability ([11]; 15 µM): 0.722 | viability ([12]; 0.024 µM): 0.878 | viability ([12]; 0.12 µM): 0.846 | viability ([12]; 0.6 µM): 0.895 | viability ([12]; 3 µM): 0.938 | viability ([12]; 15 µM): 0.797 | viability ([13]; 0.024 µM): 0.796 | viability ([13]; 0.12 µM): 0.917 | viability ([13]; 0.6 µM): 0.931 | viability ([13]; 3 µM): 0.94 | viability ([13]; 15 µM): 0.914 | viability ([14]; 0.024 µM): 0.857 | viability ([14]; 0.12 µM): 0.937 | viability ([14]; 0.6 µM): 0.92 | viability ([14]; 3 µM): 0.894 | viability ([14]; 15 µM): 0.735 | viability ([15]; 0.024 µM): 0.797 | viability ([15]; 0.12 µM): 0.814 | viability ([15]; 0.6 µM): 0.835 | viability ([15]; 3 µM): 0.867 | viability ([15]; 15 µM): 0.825 | viability ([16]; 0.024 µM): 0.928 | viability ([16]; 0.12 µM): 0.976 | viability ([16]; 0.6 µM): 0.955 | viability ([16]; 3 µM): 0.925 | viability ([16]; 15 µM): 0.876 | viability ([17]; 0.024 µM): 0.851 | viability ([17]; 0.12 µM): 0.939 | viability ([17]; 0.6 µM): 0.91 | viability ([17]; 3 µM): 0.889 | viability ([17]; 15 µM): 0.893
